Among the data in US10221129B2, “Inhibitors of human immunodeficiency virus replication” (ViiV HEALTHCARE UK (NO.5) LIMITED, priority 2015, dated 2019) are EC50 and CC50 values, retold here.

Where only a bound is given, the exact number is not on record here.

Data set [1] has as its system recombinant NL4-3 virus (nef section replaced with Renilla luciferase gene) in MT-2 cells. Kind of data set: HIV cell culture assay (antiviral activity, luciferase readout). The format is cell-based. As to conditions: Renilla, NL43, MT-2 cells infected for 4-5 days with recombinant NL4-3 Renilla luciferase virus. Put shortly:
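Serial compound dilutions tested in MT-2 cells infected for 4-5 days with 293T-derived NL4-3 virus carrying Renilla luciferase in place of part of nef. Antiviral activity quantified as luciferase activity, read with a live-cell substrate.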

Data set [2] can be described thus: Compound cytotoxicity, XTT-based colorimetric assay. The class given is cell-based. As to conditions: human, uninfected MT2 cells, day 4, XTT. The method, boiled down:
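Run under the antiviral-assay protocol but without virus. Viability was read on day 4 and CC50 values were derived from the readout.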

A word on the EC50: it is the concentration needed to bring the measured effect to its halfway point. One may read the CC50 as the concentration that lowers cell viability or growth by half. A low value points to greater toxicity to the cells. Regarding `CN(C(=O)[C@H](Cc1cc(F)cc(F)c1)NC(=O)NS(=O)(=O)N1CCC(Cc2ccccc2)CC1)c1ccc2scnc2c1` [CA-133], the EC50 in data set [1] was determined as 720 nM. In addition, the half-maximal cytotoxic concentration (CC50) at 4 days in data set [2] amounted to 86.4 µM.
Consider `CN(C(=O)[C@H](Cc1cc(F)cc(F)c1)NC(=O)NS(=O)(=O)N1CCc2cccnc21)c1ccc2c(c1)OCCO2` [ZY-24], for which the EC50 in data set [1] is 60 nM. Further, the CC50 at 4 days in data set [2] was found to be 53.4 µM.
The like results for `COc1ccc(N(C)C(=O)[C@H](Cc2cc(F)cc(F)c2)NC(=O)NS(=O)(=O)N2CCc3c(Cl)ccnc32)cc1` [BB-4] were, in that order, 420 nM and 61.9 µM.
For the compound `CCOc1ccc(N(CC)C(=O)[C@H](Cc2ccccc2)NC(=O)NS(=O)(=O)N2CCc3cc(OC)cc(C)c32)cc1` [JB-74], the EC50 in data set [1] came to 1120 nM. The same compound displayed a CC50 at 4 days in data set [2] above 100 µM.
For `COc1ccc(N(C)C(=O)[C@H](Cc2ccccc2)NC(=O)NS(=O)(=O)Nc2ccccc2C)cc1` [JB-17], in that order: 80 nM and above 100 µM.
For `COc1ccc(N(C)C(=O)[C@H](Cc2ccccc2)NC(=O)NS(=O)(=O)N(C)c2ccccc2)cc1` [JB-3], the EC50 in data set [1] was 130 nM. In addition, the CC50 at 4 days in data set [2] is above 100 µM.
For `CCCNS(=O)(=O)NC(=O)N[C@@H](Cc1cc(F)cc(F)c1)C(=O)N(C)c1ccc2scnc2c1` [CA-146], in that order: 50 nM and above 100 µM.
The like results for `CN(C(=O)[C@H](Cc1cc(F)cc(F)c1)NC(=O)NS(=O)(=O)NCC(C)(C)C)c1ccc2scnc2c1` [CA-143] were, in that order, 50 nM and above 100 µM.
The like results for `COc1cncc(N(C)C(=O)[C@H](Cc2cc(F)cc(F)c2)NC(=O)NS(=O)(=O)N2CCc3cccnc32)c1` [BB-19] were, in that order, 3270 nM and above 100 µM.
As to `COc1ccc(N(C)C(=O)[C@H](Cc2ccccc2)NC(=O)NS(=O)(=O)NCC(=O)N2CCOCC2)cc1` [CA-59], the EC50 in data set [1] is 6140 nM. In data set [2], this compound came in with a CC50 at 4 days above 100 µM.
For `COc1ccc(N(C)C(=O)[C@H](Cc2cc(F)cc(F)c2)NC(=O)NS(=O)(=O)N2CCC(F)(F)CC2)cc1F` [AW-3], in that order: 980 nM and above 100 µM.
For `CN(C(=O)[C@H](Cc1cc(F)cc(F)c1)NC(=O)NS(=O)(=O)N1CCc2cccnc21)c1ccc(C(F)(F)F)nc1` [GW-9], in that order: 180 nM and 35.1 µM.
Consider `COc1ccc(N(C)C(=O)[C@H](Cc2ccccc2)NC(=O)NS(=O)(=O)Nc2ccc(OCc3ccccc3)cc2)cc1` [CA-32], for which the EC50 in data set [1] turned out to be 980 nM. The compound further displayed a CC50 at 4 days in data set [2] above 33.3 µM.
For `CN(C(=O)[C@H](Cc1cc(F)cc(F)c1)NC(=O)NS(=O)(=O)Nc1ccc(C(C)(C)C)cc1)c1ccc2scnc2c1` [ZY-11], the EC50 in data set [1] came out at 80 nM. Further, the midpoint of cytotoxicity in data set [2], the CC50 at 4 days, lay at 66.9 µM.
On to `CN(C(=O)[C@H](Cc1cc(F)cc(F)c1)NC(=O)NS(=O)(=O)N1CCc2cccnc21)c1ccc2scnc2c1F` [GW-22], for which the concentration giving a half-maximal response (EC50) in data set [1] turned out to be 10 nM. Besides, the CC50 at 4 days in data set [2] was above 100 µM.
For the compound `CN(C(=O)[C@H](Cc1cc(F)cc(F)c1)NC(=O)NS(=O)(=O)N1CCc2cccc(F)c21)c1ccc2scnc2c1` [ZY-15], the EC50 in data set [1] is 30 nM. The same compound showed a CC50 at 4 days in data set [2] above 33.3 µM.
As for `CCN(CC)S(=O)(=O)NC(=O)N[C@@H](Cc1cc(F)cc(F)c1)C(=O)N(C)c1ccc(OC(F)F)cc1` [BB-36], the EC50 in data set [1] amounted to 160 nM. In data set [2], the CC50 at 4 days was above 100 µM.
For `CN(C(=O)[C@H](Cc1cc(F)cc(F)c1)NC(=O)NS(=O)(=O)N1CCOCC1)c1ccc2scnc2c1` [VN-23], in that order: 170 nM and above 100 µM.
For `CCOc1ccc(N(CC)C(=O)[C@H](Cc2ccccc2)NC(=O)NS(=O)(=O)N2CCc3c(Cl)cccc32)cc1` [JB-72], the EC50 in data set [1] was found to be 180 nM. Further, the CC50 at 4 days in data set [2] was above 33.3 µM.
For `Cc1ccc(N(C)C(=O)[C@H](Cc2cc(F)cc(F)c2)NC(=O)NS(=O)(=O)N2CCc3cncnc32)cc1F` [BB-14], in that order: 20 nM and 93.1 µM.
The like results for `CN(C(=O)[C@H](Cc1cc(F)cc(F)c1)NC(=O)NS(=O)(=O)n1ncc2cc(F)ccc21)c1ccc2scnc2c1` [ZY-20] were, in that order, 4190 nM and above 100 µM.
Regarding `COc1ccc(N(C)C(=O)[C@H](Cc2ccccc2)NC(=O)NS(=O)(=O)Nc2ccccc2-c2ccccc2)cc1` [CA-31], in data set [1], the EC50 was determined as 1170 nM. In data set [2], the CC50 at 4 days was above 33.3 µM.
Take `COc1ccc(N(C)C(=O)[C@H](Cc2ccccc2)NC(=O)NS(=O)(=O)Nc2ccc(F)cc2)cc1` [JB-50]: the EC50 in data set [1] is 100 nM. Moreover, the CC50 at 4 days in data set [2] is above 100 µM.
In the case of `COc1ccc(N(C)C(=O)[C@H](Cc2ccccc2)NC(=O)NS(=O)(=O)Nc2ccc(C)c(C)c2)cc1` [CA-13], the EC50 in data set [1] is 60 nM. Moreover, in data set [2], the CC50 at 4 days was above 100 µM.
For `COc1ccc(N(C)C(=O)[C@H](Cc2ccccc2)NC(=O)NS(=O)(=O)Nc2cccc(Cl)c2Cl)cc1` [CA-30], in that order: 80 nM and above 100 µM.
Turning to `COc1ccc(N(C)C(=O)[C@H](Cc2ccccc2)NC(=O)NS(=O)(=O)Nc2ccccc2OC(F)(F)F)cc1` [CA-26], the EC50 in data set [1] is 270 nM. The same compound had a CC50 at 4 days in data set [2] above 100 µM.
For `COc1ccc(N(C)C(=O)[C@H](Cc2ccccc2)NC(=O)NS(=O)(=O)NC(C)c2cnn(C)c2C)cc1` (some centres unmarked) [JB-60], in data set [1], the EC50 came to 270 nM. In data set [2], the CC50 at 4 days was above 100 µM.
With `CN(C(=O)[C@H](Cc1cc(F)cc(F)c1)NC(=O)NS(=O)(=O)NC1CCC1)c1ccc2scnc2c1` [CA-132], in data set [1], the EC50 was 50 nM. This compound came in with a CC50 at 4 days in data set [2] above 100 µM.
For `COc1ccc(N(C)C(=O)[C@H](Cc2ccccc2)NC(=O)NS(=O)(=O)Nc2ccc(Oc3ccccc3)cc2)cc1` [CA-18], in that order: 350 nM and above 33.3 µM.
On to `CN(C(=O)[C@H](Cc1cc(F)cc(F)c1)NC(=O)NS(=O)(=O)NCc1ccccn1)c1ccc2scnc2c1` [CA-134], for which the EC50 in data set [1] worked out at 430 nM. In addition, the CC50 at 4 days in data set [2] was above 100 µM.
For `COc1ccc(N(C)C(=O)[C@H](Cc2ccccc2)NC(=O)NS(=O)(=O)Nc2cccc(OC)c2)cc1` [JB-20], in that order: 100 nM and above 100 µM.
The like results for `COc1ccc(N(C)C(=O)[C@H](Cc2ccccc2)NC(=O)NS(=O)(=O)NCC(=O)N(C)C)cc1` [CA-52] were, in that order, 910 nM and above 100 µM.
For `COc1ccc2c(n1)N(S(=O)(=O)NC(=O)N[C@@H](Cc1cc(F)cc(F)c1)C(=O)N(C)c1ccc3scnc3c1)CC2` [AW-2], in that order: 10 nM and above 100 µM.
Take `COc1ccc(N(C)C(=O)[C@H](Cc2ccccc2)NC(=O)NS(=O)(=O)NCCc2ccccc2)cc1` [JB-33]: the EC50 in data set [1] came to 680 nM. In data set [2], this compound gave a CC50 at 4 days above 100 µM.
On to `Cc1ncc(N(C)C(=O)[C@H](Cc2cc(F)cc(F)c2)NC(=O)NS(=O)(=O)N2CCc3cccnc32)cc1Cl` [GW-15], for which, in data set [1], the EC50 turned out to be 970 nM. Moreover, the CC50 at 4 days in data set [2] amounted to 5.1 µM.
As for `COc1ccc(N(C)C(=O)[C@H](Cc2ccccc2)NC(=O)NS(=O)(=O)Nc2cccc3ccccc23)cc1` [CA-4], the EC50 in data set [1] turned out to be 410 nM. Also, it took 89.4 µM to reach half-maximal cytotoxicity in data set [2] (CC50 at 4 days).
In the case of `COc1ccc(N(C)C(=O)[C@H](Cc2ccccc2)NC(=O)NS(=O)(=O)Nc2cc(F)cc(F)c2)cc1` [JB-46], the EC50 in data set [1] was determined as 80 nM. For the same compound, the CC50 at 4 days in data set [2] is above 100 µM.
